Experiments:
[1] = biological target: Maternal embryonic leucine zipper kinase (Homo sapiens, UniProt Q14680); assay: Inhibition of MELK (unknown origin) containing kinase domain and UBA domain using STK S1 as substrate after 20 mins by HTRF assay
[2] = biological target: Rho-associated protein kinase 2 (Homo sapiens, UniProt O75116); assay: Inhibition of ROCK2 (unknown origin)
Sequence of Rho-associated protein kinase 2 (O75116 whole entry): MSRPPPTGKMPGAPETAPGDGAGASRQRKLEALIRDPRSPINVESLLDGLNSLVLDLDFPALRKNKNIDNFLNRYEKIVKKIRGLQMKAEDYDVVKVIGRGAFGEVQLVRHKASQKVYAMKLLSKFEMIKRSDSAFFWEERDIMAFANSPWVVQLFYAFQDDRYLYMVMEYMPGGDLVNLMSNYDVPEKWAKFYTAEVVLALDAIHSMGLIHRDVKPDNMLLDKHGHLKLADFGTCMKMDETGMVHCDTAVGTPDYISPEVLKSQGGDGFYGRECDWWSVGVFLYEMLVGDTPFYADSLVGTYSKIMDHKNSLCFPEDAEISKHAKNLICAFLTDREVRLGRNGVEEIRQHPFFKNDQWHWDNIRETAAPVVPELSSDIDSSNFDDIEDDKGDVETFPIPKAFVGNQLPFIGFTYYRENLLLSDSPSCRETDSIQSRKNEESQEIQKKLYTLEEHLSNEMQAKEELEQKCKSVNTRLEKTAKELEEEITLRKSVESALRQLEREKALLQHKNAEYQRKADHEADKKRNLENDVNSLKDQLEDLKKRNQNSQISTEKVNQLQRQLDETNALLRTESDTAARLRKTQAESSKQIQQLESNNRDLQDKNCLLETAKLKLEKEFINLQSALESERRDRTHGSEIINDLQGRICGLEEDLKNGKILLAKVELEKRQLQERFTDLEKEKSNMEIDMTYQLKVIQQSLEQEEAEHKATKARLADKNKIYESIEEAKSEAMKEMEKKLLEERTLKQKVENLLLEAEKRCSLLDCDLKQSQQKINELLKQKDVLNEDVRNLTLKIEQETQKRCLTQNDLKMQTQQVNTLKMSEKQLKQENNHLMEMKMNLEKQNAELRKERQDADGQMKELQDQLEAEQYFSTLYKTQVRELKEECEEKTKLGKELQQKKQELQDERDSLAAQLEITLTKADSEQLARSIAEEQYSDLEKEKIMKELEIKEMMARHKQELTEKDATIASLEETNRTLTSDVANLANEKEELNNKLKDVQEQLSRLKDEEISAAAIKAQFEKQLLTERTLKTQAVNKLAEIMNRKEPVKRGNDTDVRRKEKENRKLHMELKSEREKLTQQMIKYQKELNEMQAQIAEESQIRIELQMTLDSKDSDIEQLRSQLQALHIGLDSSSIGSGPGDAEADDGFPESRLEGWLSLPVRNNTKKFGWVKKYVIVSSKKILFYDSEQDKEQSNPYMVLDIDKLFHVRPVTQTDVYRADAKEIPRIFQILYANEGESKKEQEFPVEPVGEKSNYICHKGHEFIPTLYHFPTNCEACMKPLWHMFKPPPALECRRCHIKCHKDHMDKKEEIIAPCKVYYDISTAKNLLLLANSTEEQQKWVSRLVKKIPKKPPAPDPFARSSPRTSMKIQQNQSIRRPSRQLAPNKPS

Sequence of Maternal embryonic leucine zipper kinase (Q14680 whole entry, the tested form may be a part): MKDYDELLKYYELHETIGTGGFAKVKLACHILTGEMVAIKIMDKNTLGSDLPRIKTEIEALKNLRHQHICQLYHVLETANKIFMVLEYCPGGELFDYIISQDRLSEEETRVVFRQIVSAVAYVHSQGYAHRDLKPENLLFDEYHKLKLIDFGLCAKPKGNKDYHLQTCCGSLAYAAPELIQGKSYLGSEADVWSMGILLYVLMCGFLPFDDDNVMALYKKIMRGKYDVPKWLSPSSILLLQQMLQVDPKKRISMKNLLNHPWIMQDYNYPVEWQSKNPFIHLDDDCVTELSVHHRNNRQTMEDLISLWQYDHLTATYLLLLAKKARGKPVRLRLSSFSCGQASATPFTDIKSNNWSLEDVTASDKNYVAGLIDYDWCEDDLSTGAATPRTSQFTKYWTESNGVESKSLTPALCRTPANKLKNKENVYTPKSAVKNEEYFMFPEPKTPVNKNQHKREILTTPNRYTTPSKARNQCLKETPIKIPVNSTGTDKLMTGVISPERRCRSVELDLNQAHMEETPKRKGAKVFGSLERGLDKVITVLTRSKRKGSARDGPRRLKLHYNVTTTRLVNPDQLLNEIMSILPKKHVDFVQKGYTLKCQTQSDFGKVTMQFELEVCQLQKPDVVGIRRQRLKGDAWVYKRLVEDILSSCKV

Row | SMILES | IC50 [1] | IC50 [2]
1 | CNc1ncc(-c2ccc(C(=O)NCC(=O)Nc3ccccc3)cc2)c(OCC2CCNCC2)n1 | 120 nM | 
2 | CNc1ncc(-c2ccc(C(=O)NCc3nc4ccccc4[nH]3)cc2)c(OCC2CCNCC2)n1 | 9.2 nM | 
3 | O=C(CNC(=O)c1ccc(-c2cnc(Nc3ccccc3)nc2OCC2CCNCC2)cc1)Nc1ccccc1 | 8.8 nM | 
4 | CNc1ncc(-c2ccc(C(=O)NCc3nc4ccc(OC)cc4[nH]3)cc2)c(OCC2CCNCC2)n1 | 1.5 nM | 
5 | O=C(CNC(=O)c1ccc(-c2cnccc2OCC2CCNCC2)cc1)Nc1ccccc1 | 740 nM | 360 nM
6 | O=C(NCc1nc2ccccc2[nH]1)c1ccc(-c2cnccc2OCC2CCNCC2)cc1 | 12 nM | 

More lines, in order of falling IC50 [1], values ahead:

Row | IC50 [1] | IC50 [2] | SMILES
7 | 1.5 nM | 7800 nM | COc1ccc2nc(CNC(=O)c3ccc(-c4cnccc4OCC4CCNCC4)cc3)[nH]c2c1
8 | 1.1 nM |  | O=C(NCc1nc2ccccc2[nH]1)c1ccc(-c2cnc(Nc3ccccc3)nc2OCC2CCNCC2)cc1
9 | 0.15 nM |  | COc1ccc2nc(CNC(=O)c3ccc(-c4cnc(Nc5ccccc5)nc4OCC4CCNCC4)cc3)[nH]c2c1
